{"source": "patent US11883398B2", "about": "“Dipeptidylpeptidase 4 inhibition enhances lymphocyte trafficking, improving both naturally occurring tumor immunity and immunotherapy” (INSTITUT PASTEUR, priority 2015, dated 2024)", "key": {"[1]": {"test_system": "CT26 tumors", "experiment": "Flow cytometry of leukocytes infiltrating CT26 tumors", "type": "in vivo, mouse", "conditions": "day 11, sitagliptin vs control"}, "[2]": {"test_system": "CT26 colon carcinoma", "experiment": "Subcutaneous CT26 colon carcinoma tumor growth in vivo", "set-up": "species or system mouse", "method": "Mice used were 7-12 weeks old. […] B16F10 and […] (Ovalbumin-expressing B16F10 cells, gift from C. Reis e Sousa) tumor cells were cultured in DMEM (Gibco) supplemented with 10% FCS (PAA), 0.1 mM non-essential amino acids, 1 mM sodium pyruvate, 10 mM Hepes, 70 μM beta-mercaptoethanol and 23 μg/ml gentamycin (all from Gibco). CT26 colon carcinoma cells were cultured in RPMI (Gibco) supplemented as described for DMEM. Cells for injections were passaged 1-2 times after thawing, before use. WT and genetically modified mice were subcutaneously injected with 2×10^5 B16 or 5×10^5 CT26 cells in the shaved right flank. […] For blocking of chemokine and chemokine receptors, WT mice were intraperitoneally injected with 100 μg of hamster a-mCXCR3 (clone CXCR3-173, BioLegend), 100 μg of hamster α-mCCR5 (clone HM-CCR5, BioLegend), 50 μg of rat anti-mCXCL10 (clone 134013, R&D systems) and 20 μg of rat-α-mCXCR4 (clone 2B11/CXCR4, BD Biosciences) or with respective isotype antibodies (hamster IgG (clone HTK888, BioLegend, used as control for mCXCR3 and mCCR5 blockage); rat IgG2a (clone 54447, R&D systems, used as control for mCXCL10 blockade) and rat IgG2b (clone A95-1, BD Biosciences, used as control for mCXCR4 blockade). […] Tumor height and width were measured with a caliper and tumor volume was calculated (Elliptical volume=width^2×height×0.523). […]"}}, "note": "“Also recorded” adds a separate entry of the source.", "data": [{"smiles": "N[C@@H](CC(=O)N1CCn2c(nnc2C(F)(F)F)C1)Cc1cc(F)c(F)cc1F", "note": "[sitagliptin]", "values": [{"measurement": "infiltration of lymphocytes, including T cell subsets and NK cells, into CT26 tumors", "setting": "[1]", "value": "enhanced infiltration of lymphocytes"}, {"measurement": "number of tumor associated B cells, eosinophils and CD25hi regulatory T cells in CT26 tumors", "setting": "[1]", "value": "did not change"}, {"measurement": "CT26 tumor growth", "setting": "[2]; BALB/c mice, sitagliptin vs control chow", "value": "marked delay of CT26 tumor growth; also recorded: delayed CT26 growth"}, {"measurement": "CT26 tumor growth with CXCR3 blocking antibodies", "setting": "[2]; anti-CXCR3 antibody, sitagliptin vs control", "value": "loss of protection"}]}]}
